ChEMBL document CHEMBL3044599, “Structure-activity relationship of citrus polymethoxylated flavones and their inhibitory effects on Aspergillus niger” (J Agric Food Chem, 2012)
Active and inactive are the calls of the source. No cut-off for these calls is given here.

What follows are molecules tested on Aspergillus niger (assay: Antifungal activity against Aspergillus niger CICC 2273 assessed as inhibition of mycelial growth by microbroth dilution method).
Assay type: functional, organism-based

For `COc1ccc(-c2oc3c(OC)c(OC)c(OC)c(OC)c3c(=O)c2O)cc1OC`, which inhibition is on record?
The inhibition was “inactive”.

How did the inhibition turn out when `COc1ccc(-c2cc(=O)c3c(OC)c(OC)c(OC)cc3o2)cc1` was run?
Its inhibition is “Active”.

Which inhibition does the source give for `COc1ccc(-c2cc(=O)c3c(O)c(OC)c(OC)c(OC)c3o2)cc1OC` here?
The inhibition was “Active”.

How did the inhibition turn out when `COc1ccc(-c2oc3cc(OC)c(OC)c(OC)c3c(=O)c2OC)cc1OC` was run?
The inhibition was “Active”.

`CC(=O)C[C@H]1O[C@@H](Oc2ccc3c(=O)cc(-c4ccccc4)oc3c2)[C@H](O)[C@@H](O)[C@@H]1O` was tested. Which inhibition did it give?
The inhibition was “inactive”.

With `COc1ccc(-c2cc(=O)c3c(OC)c(OC)c(OC)c(OC)c3o2)cc1OC` as the molecule, how does the inhibition read?
Its inhibition is “Active”.
